This is an account of results in paper PMC6099735, “Piplartine Analogues and Cytotoxic Evaluation against Glioblastoma” (Molecules : A Journal of Synthetic Chemistry and Natural …, 2018).

Converted amounts (≈) assume the structure as drawn.

The subject of one series is U87MG cells. The experiment in a line: MTT cell viability assay, cytotoxic activity against proliferation of U87MG cells. The class given is cell-based, human. Conditions: Homo sapiens, U-87 MG, MTT assay, 48 h exposure, 0.78-50 μg/mL, mean ± SEM of four experiments. As to the method:
To evaluate the cytotoxic potential of compounds 2–19 against human U87MG, glioblastoma cells were used with several concentrations (0 to 50 μg/mL). After 48 h of incubation, cell viability rates were established by MTT and LDH analysis. IC50 values of each analogue were determined due to observed cell viability results after MTT assay. All tested analogues led to inhibition of cellular proliferation rates as compared to untreated cells in a clear concentration and compound type dependent manners, as illustrated in Table 1 and Figure 2.
Human glioblastoma (GBM) cell line U87MG (American Type Culture Collection; Rockville, MD, USA) within passage number 15–20 were grown in an incubator at 37 °C in a humidified atmosphere of 5% CO2. They were grown in Eagle’s Minimal Essential Medium from Sigma-Aldrich (Saint Louis, MO, USA), supplemented with 10% fetal bovine serum (FBS) and 100 μg/mL of each of the following antibiotics: penicillin and streptomycin [66].
To examine the effects of compounds on cell viability, an MTT assay was performed. U87MG cells were seeded at 1 × 10^4 cells per well in 96-well plate and allowed to attach for 24 h. Then the cells were exposed to different concentrations of 2–19 (0.78, 1.56, 3.125, 6.25, 12.5, 25 and 50 μg/mL) for 48 h. All the compounds were dissolved in dimethyl sulfoxide (DMSO), and diluted in serum-free culture medium. After the incubation, a 3-(4,5-dimethylthiazol-2-yl)-2,5-diphenyltetrazolium bromide (MTT) solution was applied to cell cultures according to the manufacturer’s instructions (Cayman Chemical Company®, Ann Arbor, MI, USA). After 3 h of incubation, MTT-formazan crystals were dissolved in DMSO and absorbance was measured at 570 nm on a plate reader and compared with control, untreated cells. The half-maximal inhibitory concentration values (IC50) were determined by MTT assay performed in four replicates.
On the technique in general: Tetrazolium dyes change colour on reduction, which living cells bring about.

Series [1] relates to BF16F10-Nex2 (murine melanoma). The arrangement: method as in PMID 25920262. Conditions: MTT test; cited from earlier work.
Series [2] concerns HeLa (human cervical carcinoma). The arrangement: method as in PMID 25920262. Conditions: MTT test; cited from earlier work.
The test system of series [3] is HL-60 (human leukemic cell). The arrangement: method as in PMID 25920262. Conditions: MTT test; cited from earlier work.

Turning to `COc1ccc(CNC(=O)/C=C/c2cc(OC)c(OC)c(OC)c2)cc1` [Compound 17, (E)-N-(4-Methoxybenzyl)-3-(3,4,5-trimethoxyphenyl)acrylamide], the melting point was in the range of 225 to 226 °C. For the same compound, the half-inhibitory concentration (IC50) in the series on U87MG cells was determined as 22.7 ± 0.39 µg/mL (≈ 63.4 µM). With `COc1cc(/C=C/C(=O)NCc2ccc(C)cc2)cc(OC)c1OC` [Compound 16, (E)-N-(4-Methylbenzyl)-3-(3,4,5-trimethoxyphenyl)acrylamide], the melting point is 203 to 205 °C. In the series with U87MG cells, this compound registered an IC50 of 22.7 ± 0.34 µg/mL (≈ 66.6 µM). Regarding `COc1cc(/C=C/C(=O)NCc2ccc(Cl)cc2)cc(OC)c1OC` [Compound 18, (E)-N-(4-Chlorobenzyl)-3-(3,4,5-trimethoxyphenyl)acrylamide], the melting point was in the range of 215 to 218 °C. Also, in the series on U87MG cells, half-maximal inhibition (IC50) was put at 43.4 ± 0.48 µg/mL (≈ 120 µM). With `COc1cc(/C=C/C(=O)OCCc2ccccc2)cc(OC)c1OC` [Compound 12, (E)-Phenethyl 3-(3,4,5-trimethoxyphenyl)acrylate], the IC50 in the series on U87MG cells stood at 24.8 ± 0.37 µg/mL (≈ 72.4 µM). In the case of `CCOC(=O)/C=C/c1cc(OC)c(OC)c(OC)c1` [Compound 3, (E)-Ethyl-3-(3,4,5-trimethoxyphenyl)acrylate], in the series on U87MG cells, the 50% inhibitory concentration (IC50) worked out at 100 ± 1.12 µg/mL (≈ 376 µM).

`COc1cc(/C=C/C(=O)OCCc2ccc(C)cc2)cc(OC)c1OC` [Compound 13, (E)-4-Methylphenethyl 3-(3,4,5-Trimethoxyphenyl)acrylate] registered an IC50 in the series with U87MG cells of 30.3 ± 0.35 µg/mL (≈ 85.1 µM). Turning to `COc1cc(/C=C/C(=O)NCc2ccccc2)cc(OC)c1OC` [Compound 15, (E)-N-Benzyl-3-(3,4,5-trimethoxyphenyl)acrylamide], the IC50 in the series on U87MG cells was 33.1 ± 0.41 µg/mL (≈ 101 µM). Take `COc1cc(/C=C/C(=O)OC(C)C)cc(OC)c1OC` [Compound 9, (E)-Isopropyl 3-(3,4,5-Trimethoxyphenyl)acrylate]: the IC50 in the series with U87MG cells is 81.43 ± 0.55 µg/mL (≈ 291 µM). Compound `CCCCCCCCCCOC(=O)/C=C/c1cc(OC)c(OC)c(OC)c1` [Compound 7, (E)-Decyl-3-(3,4,5-trimethoxyphenyl)acrylate] displayed a melting point of 37 to 38 °C. The compound further had an IC50 in the series on U87MG cells of 34.9 ± 0.54 µg/mL (≈ 92.3 µM). Taken in the same sequence, the figures for `CCCCNC(=O)/C=C/c1cc(OC)c(OC)c(OC)c1` [Compound 14, (E)-N-Butyl-3-(3,4,5-trimethoxyphenyl)acrylamide] were 225 to 226 °C and 13.2 ± 0.32 µg/mL (≈ 45 µM). As to piplaroxide, the cytotoxic activity result in series [1], in series [2] and in series [3] was “moderate activity” throughout. The compound `COC(=O)/C=C/c1cc(OC)c(OC)c(OC)c1` [Compound 2, (E)-Methyl-3-(3,4,5-trimethoxyphenyl)acrylate] displayed a melting point of 135 to 136 °C. Half-maximal inhibition in the series on U87MG cells (IC50) required 85.13 ± 0.78 µg/mL (≈ 337 µM). In turn, `CCCCCOC(=O)/C=C/c1cc(OC)c(OC)c(OC)c1` [Compound 6, (E)-Pentyl 3-(3,4,5-trimethoxyphenyl)acrylate] displayed a melting point of 105 to 106 °C. The same compound registered an IC50 in the series on U87MG cells of 31.7 ± 0.48 µg/mL (≈ 103 µM). For the compound `CCN(CC)C(=O)/C=C/c1cc(OC)c(OC)c(OC)c1` [Compound 19, (E)-N,N-Diethyl-3-(3,4,5-trimethoxyphenyl)acrylamide], the melting point was in the range of 197 to 198 °C. For the same compound, the IC50 in the series with U87MG cells is 36.1 ± 0.44 µg/mL (≈ 123 µM). As to `CCCOC(=O)/C=C/c1cc(OC)c(OC)c(OC)c1` [Compound 4, (E)-Propyl-3-(3,4,5-trimethoxyphenyl)acrylate], inhibition with U87MG cells was half-maximal at 78.39 ± 0.69 µg/mL (≈ 280 µM) (IC50). The compound `COc1cc(/C=C/C(=O)Oc2cc(C(C)C)ccc2C)cc(OC)c1OC` [Compound 11, (E)-Carvacryl-3-(3,4,5-trimethoxyphenyl)acrylate] had a melting point of 145 to 146 °C. Further, the IC50 in the series on U87MG cells was determined as 26.7 ± 0.47 µg/mL (≈ 72.1 µM).

Compound `CCCCOC(=O)/C=C/c1cc(OC)c(OC)c(OC)c1` [Compound 5, (E)-Butyl-3-(3,4,5-trimethoxyphenyl)acrylate] displayed a melting point of 74 to 75 °C. In the series on U87MG cells, this compound gave an IC50 of 57.9 ± 0.71 µg/mL (≈ 197 µM).

In the series on U87MG cells, `CC(=O)O[C@H]1C(=O)[C@@]2(C)[C@H]([C@H](OC(=O)c3ccccc3)[C@]3(O)C[C@H](OC(=O)[C@H](O)[C@@H](NC(=O)c4ccccc4)c4ccccc4)C(C)=C1C3(C)C)[C@]1(OC(C)=O)CO[C@@H]1C[C@@H]2O` [paclitaxel, reference compound] came in with an IC50 of 2.12 µg/mL (≈ 2.48 µM). `COCCOC(=O)/C=C/c1cc(OC)c(OC)c(OC)c1` [Compound 8, (E)-2-Methoxyethyl-3-(3,4,5-trimethoxyphenyl)acrylate] showed a melting point of 60 to 62 °C. In addition, the IC50 in the series on U87MG cells is 50.1 ± 0.62 µg/mL (≈ 169 µM).

As a reminder, the IC50 is the concentration that inhibits the measured activity by half. The low end stands for higher potency, the high end for lower potency. By melting point is commonly meant the temperature, or range, at which the solid turns liquid.
